Values quoted from earlier work as cited in patent US20130337054A1, “TREATMENT OF EXCESSIVE MENSTRUAL BLOOD LOSS BY INTRAVAGINAL ADMINISTRATION OF LOW DOSES OF ANTIFIBRINOLYTIC OR HEMOSTATIC AGENT” (ARSTAT Inc., priority 2011, published 2013).

Legend:
[1] = test system: menorrhagia; settings: oral, cited from earlier work
[2] = cited from earlier work
[3] = test system: menorrhagia (menstrual blood loss); settings: oral; cited from earlier work
[4] = test system: postoperative bleeding complications; settings: mouthwash, compared to placebo; cited from earlier work
[5] = test system: postoperative blood loss; settings: cited from earlier work

Molecule	risk of gastrointestinal adverse events ([1]; 6 g/day)	efficacy in relation to dose ([1]; EMEA 2000)	plasma concentration ([2]; after a mouth rinse)	saliva concentration, maximum level ([2]; after a mouth rinse)	time saliva concentration remained at a therapeutic level ([2]; after a mouth rinse)	drug in saliva samples ([2]; after an oral tablet)	mean drug plasma concentration ([2]; after an oral tablet)	difference versus placebo in reduction of large stains, small and large clots and changes in serum ferritin levels [3]	incidence of postoperative bleeding complications [4]	plasma drug levels ([5]; in vivo)	postoperative blood loss ([5]; locally administered)
NC[C@H]1CC[C@H](C(=O)O)CC1 [tranexamic acid]	increased	dose-dependent increase in efficacy	below 2 mcg/mL	above 200 mcg/mL	more than two	not detected	7000 ng/mL	no statistically significant differences	reduce the incidence	–	–
aprotinin	–	–	–	–	–	–	–	–	–	without detectable plasma drug levels	Reduction
